From US20080076824A1, “Compounds That Inhibit Replication Of Human Immunodeficiency Virus” (priority 2004, published 2008)
Where “and” joins values, the source holds several entries; their conditions need not be identical. Identical values can stand only once. Entries after “also recorded” stand apart in the source; their conditions may differ. Like-named read-outs stand apart in the source and are kept apart here.

Legend:
HIV (SF2 virus) [1] = experiment: HIV infectivity assay, SF2-infected H9 cells, visible syncytia; format: cell-based; conditions: for Visible syncytia: H9/SF2, day 11
HIV (SF2 virus) [2] = experiment: HIV infectivity assay, SF2-infected H9 cells, reverse transcriptase (RT) quantification in supernatant; format: cell-based; conditions: for inhibition of HIV replication, reverse transcriptase (RT) activity: cultures containing boiled fetal calf serum
HIV (SF2 virus) [3] = experiment: HIV infectivity assay, SF2-infected H9 cells, p24 quantification; format: cell-based; conditions: for OD1: replicates (1)-(3)
Description: The remaining wells were filled with sterile distilled water. The cell culture plates were incubated at 37° C. and 5% CO2. After four days the medium was changed, after eight days the medium was changed and the cells were collected. After 11 days, the infection was stopped, the cells were viewed in a 10× magnification microscope and 650 μl of each cell supernatant was collected and frozen at −80° C. for further analysis. After five more days, the supernatants were thawed and used in a conventional reverse transcriptase (RT) activity assay (e.g., Roche AMPLICOR MONITOR™) or a p24 quantification assay (e.g., Abbott Laboratories, Chicago). (See U.S. Pat. No. 6,258,932 and U.S. patent application Ser. No. 10/235,158, both of which are hereby expressly incorporated by reference in its entireties).
[…] The cells in the samples were counted and then centrifuged. The cells were then resuspended in 10 ml of RPMI 1640 (containing fetal calf serum) and either […] Metabolite X or 100 μM GPG-NH2. Uninfected control and untreated control samples were also included in the experiment. The samples were then incubated overnight at 37° C. at 5% CO2.
Then, the amount of p24 in the samples was analysed using a conventional p24 detection assay (see U.S. Pat. No. 6,258,932).
Three replicate samples (“replicates”) of uninfected samples and untreated samples were also included in the experiment as controls. The inhibition of HIV replication was monitored by quantifying the levels of p24 using a conventional detection kit.
Three replicates of unninfected samples and untreated samples were also included in the experiment as controls.

HIV-1 (IIIB) [4] = tested on: HIV-1 (IIIB)
HIV-1 (IIIB) [5] = experiment: microbe, parasite or virus in culture
Description: (§1) MT-4, C8166 or CEM cells (4 to 5×10^5 cells per ml) were suspended in fresh culture medium (RPMI-1640 medium supplemented with 10% fetal bovine serum (FBS) (BioWittaker Europe, Verviers, Belgium), 2 mM L-glutamine and […] NaHCO3). Subsequently, the cells were infected with HIV-1 (IIIB) or HIV-2(ROD) at ˜100 CCID50 (1 CCID50 being the dose infective for 50% of the cell cultures) per ml of cell suspension. Then, 100 μl of the infected cell suspension were transferred to 96-well microplate wells, mixed with 100 μl of the appropriate (5-fold) dilutions of the test compounds and further incubated at 37° C. After 4 to 5 days, giant cell formation was recorded microscopically in the CEM and C8166 cell cultures. The MT-4 cell cultures were treated with trypan blue and the number of viable cells was determined.

HIV-2(ROD) = experiment: microbe, parasite or virus in culture
Description: as §1

HIV-1 (IIIB) [6] = experiment: microbe, parasite or virus in culture; conditions: Human immunodeficiency virus 1, IIIB, CCRF-CEM
[7] = read-out: EC50 (CEM) HIV-1 (IIIB), Table 19
[8] = read-out: EC50 against HIV-1(IIIB), CEM cell cultures, Table 2

Q: Which Visible syncytia (HIV (SF2 virus) [1]; 100 μM in boiled RPMI++) does the source give for `NC(=O)C(N)O` (stereo not drawn) [Met-X, α-hydroxyglycinamide] here?
A: Its Visible syncytia is “negative”.

Q: And the Visible syncytia (HIV (SF2 virus) [1]; 100 μM in normal RPMI++ (10% FCS))?
A: Its Visible syncytia is “negative”.

Q: And the Visible syncytia (HIV (SF2 virus) [1]; 500 μM in boiled RPMI++)?
A: Its Visible syncytia is “negative”.

Q: And the Visible syncytia (HIV (SF2 virus) [1]; 500 μM in normal RPMI++ (10% FCS))?
A: The Visible syncytia was “negative”.

Q: What about the “inhibition of replication and/or propagation of HIV by visual inspection” value (HIV (SF2 virus) [1]; boiled fetal calf serum) of the same compound?
A: The value was “effectively inhibited”.

Q: And the “reverse transcriptase activity in treated samples” value (HIV (SF2 virus) [2]; 100 μM, fetal calf serum)?
A: The value was “no reverse transcriptase activity”.

Q: And the “inhibition of HIV replication, reverse transcriptase (RT) activity” value (HIV (SF2 virus) [2])?
A: The value was “inhibited the replication of HIV”.

Q: And the “inhibition of HIV replication, reverse transcriptase (RT) activity” value (HIV (SF2 virus) [2]; listed as Metabolite X)?
A: Its value is “effectively inhibited replication HIV”.

Q: What about the “concentration at which inhibition of HIV replication is virtually complete” value (HIV (SF2 virus) [2]; fetal bovine serum, 10 days) of the same compound?
A: The value was ≥ 15.6 µM.

Q: What about the OD1 (HIV (SF2 virus) [3]; 50 μM, fetal calf serum) of the same compound?
A: Its OD1 is 1.105 and 1.895 and 2.351.

Q: And the “conc p24” value (HIV (SF2 virus) [3]; 50 μM, human serum)?
A: Its value is 457.33 ng/mL and 427.85 ng/mL and 261.05 ng/mL.

Q: What about the OD1 (HIV (SF2 virus) [3]; 100 μM, fetal calf serum) of the same compound?
A: Its OD1 is 0.193 and 0.081 and 0.144.

Q: What about the “inhibition of HIV replication, p24” value (HIV (SF2 virus) [3]; 100 μM, presence of fetal calf serum) of the same compound?
A: The value was “effectively inhibited HIV replication”.

Q: What about the “inhibition of HIV, accumulation of p24, compared with reference” value (HIV (SF2 virus) [3]; fetal calf serum) of the same compound?
A: The value was “as effectively as GPG-NH2; also recorded: as effectively as G-NH2”.

Q: And the “inhibition of HIV replication, accumulation of p24” value (HIV (SF2 virus) [3]; human serum)?
A: The value was “inhibited HIV replication in human serum”.

Q: What about the “inhibition of HIV replication, accumulation of p24” value (HIV (SF2 virus) [3]; human serum, listed as Metabolite X) of the same compound?
A: Its value is “effective inhibitors of HIV replication in human serum”.

Q: What about the “inhibition of replication of HIV” value (HIV-1 (IIIB) [4]; boiled fetal bovine serum or human serum samples, results the experiments will show) of the same compound?
A: The value was “efficiently inhibits replication of HIV”.

Q: Which EC50 (HIV-1 (IIIB) [5]; Human immunodeficiency virus 1, IIIB, MT4, read-out: EC50 (MT-4) HIV-1 (IIIB)) does the source give for `NC(=O)C(N)=O` [Oxamide, Oxamide (H2NCOCONH2), reference compound] here?
A: The EC50 was > 500 µM.

Q: What about the EC50 (HIV-2(ROD); Human immunodeficiency virus 2, MT4, read-out: EC50 (MT-4) HIV-2 (ROD), Table 19) of the same compound?
A: Its EC50 is > 500 µM.

Q: And the EC50 (HIV-1 (IIIB) [6]; [7])?
A: Its EC50 is > 500 µM.

Q: For `NC(=O)C[C@@H](N)C(=O)O` [D-Asparagine], which EC50 (HIV-1 (IIIB) [6]; [8]) is on record?
A: Its EC50 is > 500 µM.

Q: What does the source list for `NC(=O)C[C@H](N)C(N)=O` [L-Asparaginamide, reference compound]?
A: EC50 (HIV-1 (IIIB) [4]; [8]): > 1000 µM; EC50 (HIV-1 (IIIB) [6]; [8]): > 500 µM

Q: Which EC50 (HIV-1 (IIIB) [6]; [8]) does the source give for `NC(=O)C(N)Cc1ccccc1` (racemic) [DL-Phenylalaninamide] here?
A: The EC50 was > 1000 µM.

Q: For `NCC(O)CN` [1,3-diamino-2-hydroxypropane], which EC50 (HIV-1 (IIIB) [6]; [8]) is on record?
A: Its EC50 is > 1000 µM.

Q: With `NCC(N)=S` [Glycin-thioamide, reference compound] as the compound, how does the EC50 (HIV-1 (IIIB) [4]; [8]) read?
A: Its EC50 is > 500 µM.

Q: For `CC(C)[C@H](N)C(=O)Nc1ccc2ccccc2c1` [L-Val β-naphthylamide, reference compound], which EC50 (HIV-1 (IIIB) [4]; [8]) is on record?
A: Its EC50 is > 100 µM.

Q: Which EC50 (HIV-1 (IIIB) [6]; [8]) does the source give for `CNC(=O)CN` [Glycine methylamide] here?
A: Its EC50 is > 500 µM.

Q: For `CNCC(N)=O` [Sarcosinamide], which EC50 (HIV-1 (IIIB) [6]; [8]) is on record?
A: The EC50 was > 1000 µM.

Q: What does the source list for `NC(=O)CO` [Glycolamide, Glycolamide (HO—CH2—CO—NH2), reference compound]?
A: EC50 (HIV-1 (IIIB) [5]; read-out: EC50 (MT-4) HIV-1 (IIIB), Table 19): > 500 µM; EC50 (HIV-2(ROD); read-out: EC50 (MT-4) HIV-2 (ROD), Table 19): > 500 µM; EC50 (HIV-1 (IIIB) [4]; [7]): > 500 µM

Q: With `NC(=O)[C@@H](N)Cc1ccc(O)cc1` [L-Tyrosinamide] as the compound, how does the EC50 (HIV-1 (IIIB) [6]; [8]) read?
A: The EC50 was > 500 µM.

Q: Which EC50 (HIV-1 (IIIB) [6]; [8]) does the source give for `CC[C@H](C)[C@H](N)C(N)=O` [L-Isoleucinamide] here?
A: Its EC50 is > 500 µM.

Q: Which EC50 (HIV-1 (IIIB) [6]; [8]) does the source give for `CC(C)C[C@@H](N)C(=O)O` [D-Leucine] here?
A: The EC50 was > 1000 µM.

Q: For `COC(N)C(=O)NC(=O)OCc1ccccc1` (stereo not drawn) [Example 22, α-methoxy-N-benzyloxycarbonylglycinamide], which melting point is on record?
A: Its melting point is 110 to 112 °C.

Q: For `NC(=O)[C@@H]1CCCN1` [L-Prolinamide], which EC50 (HIV-1 (IIIB) [6]; [8]) is on record?
A: The EC50 was > 1000 µM.

Q: With `CSCC[C@H](N)C(N)=O` [L-Methioninamide] as the compound, how does the EC50 (HIV-1 (IIIB) [6]; [8]) read?
A: The EC50 was > 500 µM.

Q: With `NC(=O)[C@@H](N)CO` [L-Serinamide] as the compound, how does the EC50 (HIV-1 (IIIB) [6]; [8]) read?
A: The EC50 was > 1000 µM.

Q: For `NCC(N)C(=O)O` (racemic) [DL-2,3-diaminopropionic acid], which EC50 (HIV-1 (IIIB) [6]; [8]) is on record?
A: The EC50 was > 1000 µM.

Q: With `NCC(=O)O` [Glycine] as the compound, how does the EC50 (HIV-1 (IIIB) [6]; [8]) read?
A: The EC50 was > 500 µM.

Q: With `NC(=O)[C@@H](N)Cc1c[nH]c2ccccc12` [L-Tryptophanamide] as the compound, how does the EC50 (HIV-1 (IIIB) [6]; [8]) read?
A: Its EC50 is > 200 µM.
